Data set [1] addresses T1, Integrin alpha-4/beta-1 (Homo sapiens, UniProt P05556+P13612). The experiment in a line: Antagonist activity at integrin alpha4beta1 receptor in human CCRF-CEM cells assessed as inhibition of cell adhesion to fibronectin after 1 hr by calcein AM staining-based fluorescence assay.
The subject of data set [2] is CCRF-CEM. The experiment in a line: Cytotoxicity against human CCRF-CEM cells assessed as cell viability up to 200 uM after 24 hrs by propidium iodide staining-based flow cytometric analysis. (Flow cytometry measures light scatter and fluorescence of single cells or particles in a stream.)
For data set [3], the target named is T1, Integrin alpha-4/beta-1. The experiment in a line: Antagonist activity at integrin alpha4beta1 receptor in human CCRF-CEM cells assessed as detachment of adherent cell from fibronectin at 1 to 500 uM after 24 to 48 hrs by MTT assay. It counts as cell-based. For orientation: Formazan colour is commonly taken as a measure of viable cells.
The test system of data set [4] is CCRF-CEM. Put plainly: Cytotoxicity against human CCRF-CEM cells assessed as cell viability at 1 to 500 uM after 24 hrs by propidium iodide staining-based flow cytometric analysis.

Activity calls are given as the source filed them. The calls are words filed in the database; no cut-off is given here. A value given as a limit tells only on which side of the number the result lay.

T1 sequence (P05556 whole entry): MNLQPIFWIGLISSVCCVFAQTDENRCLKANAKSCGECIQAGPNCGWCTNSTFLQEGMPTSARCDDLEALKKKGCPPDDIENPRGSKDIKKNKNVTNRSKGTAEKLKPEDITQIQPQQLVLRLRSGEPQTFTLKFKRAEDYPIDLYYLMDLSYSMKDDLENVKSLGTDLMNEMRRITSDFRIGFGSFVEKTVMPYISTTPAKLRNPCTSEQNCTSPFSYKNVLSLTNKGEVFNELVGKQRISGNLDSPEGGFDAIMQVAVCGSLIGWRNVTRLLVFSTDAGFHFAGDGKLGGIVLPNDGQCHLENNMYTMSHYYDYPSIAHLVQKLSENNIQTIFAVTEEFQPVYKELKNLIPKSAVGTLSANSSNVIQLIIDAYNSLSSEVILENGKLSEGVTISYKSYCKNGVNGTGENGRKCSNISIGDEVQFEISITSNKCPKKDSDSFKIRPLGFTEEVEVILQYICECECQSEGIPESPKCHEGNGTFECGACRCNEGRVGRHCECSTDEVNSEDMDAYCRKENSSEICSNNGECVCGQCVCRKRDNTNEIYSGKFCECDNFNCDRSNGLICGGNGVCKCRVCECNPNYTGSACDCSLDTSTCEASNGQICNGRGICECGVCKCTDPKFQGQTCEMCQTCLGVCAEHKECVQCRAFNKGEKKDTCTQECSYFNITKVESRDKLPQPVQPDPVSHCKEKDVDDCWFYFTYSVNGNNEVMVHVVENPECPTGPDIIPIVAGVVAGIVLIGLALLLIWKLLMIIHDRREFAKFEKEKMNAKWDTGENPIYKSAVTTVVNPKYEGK
T1 sequence (P13612 whole entry): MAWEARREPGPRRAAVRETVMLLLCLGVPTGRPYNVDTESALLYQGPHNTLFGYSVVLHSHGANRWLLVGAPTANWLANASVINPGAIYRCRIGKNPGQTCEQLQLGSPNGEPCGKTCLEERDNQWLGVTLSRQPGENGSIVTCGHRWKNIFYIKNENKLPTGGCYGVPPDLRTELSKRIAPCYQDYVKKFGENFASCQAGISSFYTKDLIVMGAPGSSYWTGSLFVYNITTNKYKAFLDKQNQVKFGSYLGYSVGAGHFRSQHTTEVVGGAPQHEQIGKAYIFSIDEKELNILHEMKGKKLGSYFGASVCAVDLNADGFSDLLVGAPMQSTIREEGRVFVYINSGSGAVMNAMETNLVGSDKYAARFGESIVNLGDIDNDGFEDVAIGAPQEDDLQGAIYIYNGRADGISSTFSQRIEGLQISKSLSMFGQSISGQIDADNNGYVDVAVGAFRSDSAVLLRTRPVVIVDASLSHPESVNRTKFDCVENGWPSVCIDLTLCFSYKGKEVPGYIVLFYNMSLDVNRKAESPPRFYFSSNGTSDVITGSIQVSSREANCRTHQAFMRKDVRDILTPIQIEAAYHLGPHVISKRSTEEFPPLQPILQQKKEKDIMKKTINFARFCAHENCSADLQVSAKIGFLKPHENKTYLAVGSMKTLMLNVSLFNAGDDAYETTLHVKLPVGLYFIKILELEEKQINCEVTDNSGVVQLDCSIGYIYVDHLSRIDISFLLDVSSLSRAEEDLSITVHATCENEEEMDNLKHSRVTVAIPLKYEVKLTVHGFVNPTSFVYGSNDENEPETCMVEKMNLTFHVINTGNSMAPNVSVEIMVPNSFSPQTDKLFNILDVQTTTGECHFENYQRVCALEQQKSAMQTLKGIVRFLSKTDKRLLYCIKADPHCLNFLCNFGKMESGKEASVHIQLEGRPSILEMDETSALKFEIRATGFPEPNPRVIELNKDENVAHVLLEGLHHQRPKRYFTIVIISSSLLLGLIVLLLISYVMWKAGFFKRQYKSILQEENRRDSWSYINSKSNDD

With `Cc1cccc(C)c1NC(=O)Nc1ccc(CC(=O)Nc2ccc(CCC(=O)O)c(OCC(=O)OC(C)(C)C)c2)cc1`, the IC50 on Integrin alpha-4/beta-1 [1] is 190 µM. As to `Cc1cccc(C)c1NC(=O)Nc1ccc(CC(=O)Nc2ccc(CCC(=O)OCc3ccccc3)c(OCC(=O)O)c2)cc1`, on Integrin alpha-4/beta-1 [1], the concentration for half-maximal inhibition (IC50) is 81.3 µM. For `Cc1cccc(C)c1NC(=O)Nc1ccc(CC(=O)O)cc1`, the IC50 on Integrin alpha-4/beta-1 [1] is over 1000 µM.

As to `CC(C)(C)OC(=O)COc1cc(NC(=O)Cc2ccc(NC(=O)Nc3ccccc3C(F)(F)F)cc2)ccc1CCC(=O)O`, the half-inhibitory concentration (IC50) on Integrin alpha-4/beta-1 [1] was 79.4 µM. Regarding `Cc1cccc(C)c1NC(=O)Nc1ccc(CC(=O)Nc2ccc(OCC(=O)O)c(CCC(=O)O)c2)cc1`, the IC50 on Integrin alpha-4/beta-1 [1] is 81.3 µM. Take `O=C(O)CCc1ccc(NC(=O)Cc2ccc(NC(=O)Nc3ccccc3C(F)(F)F)cc2)cc1O`: the IC50 on Integrin alpha-4/beta-1 [1] is over 500 µM. As for `N=C(N)NCCC[C@H](NC(=O)CN)C(=O)NCC(=O)N[C@@H](CC(=O)O)C(=O)N[C@@H](CO)C(=O)O`, the half-inhibitory concentration (IC50) at Integrin alpha-4/beta-1 [1] is over 1000 µM. Regarding `Cc1cccc(C)c1NC(=O)Nc1ccc(CC(=O)Nc2ccc(OCC(=O)O)c(CCC(=O)NCc3ccccc3)c2)cc1`, on Integrin alpha-4/beta-1 [1], the IC50 was 97.7 µM. In the case of `Cc1cccc(C)c1NC(=O)Nc1ccc(CC(=O)Nc2ccc(OCC(=O)O)c(CCC(=O)OCCc3ccccc3)c2)cc1`, the IC50 on Integrin alpha-4/beta-1 [1] was 24.5 µM. On to `Cc1cccc(C)c1NC(=O)Nc1ccc(CC(=O)Nc2ccc(OCC(=O)O)c(CCC(=O)NCCc3ccccc3)c2)cc1`, for which the IC50 at Integrin alpha-4/beta-1 [1] is 106 µM. As for `O=C(O)CCc1cc(NC(=O)Cc2ccc(NC(=O)Nc3ccccc3C(F)(F)F)cc2)ccc1O`, the IC50 on Integrin alpha-4/beta-1 [1] was 209 µM. In the case of `CC(C)(C)OC(=O)COc1ccc(NC(=O)Cc2ccc(NC(=O)Nc3ccccc3C(F)(F)F)cc2)cc1CCC(=O)O`, the IC50 on Integrin alpha-4/beta-1 [1] is 151 µM. `Cc1cccc(C)c1NC(=O)Nc1ccc(CC(=O)Nc2ccc(OCC(=O)O)c(CCC(=O)OCc3ccc(Cl)cc3)c2)cc1`: the IC50 at Integrin alpha-4/beta-1 [1] is 38.9 µM. The same measure, in the same setting: to `COC(=O)[C@@H](NC(=O)[C@H](CC(=O)O)NC(=O)[C@H](CC(C)C)NC(=O)Cc1ccc(NC(=O)Nc2ccccc2C(F)(F)F)cc1)C(C)C` belongs 703 µM; to `O=C(O)Cc1ccc(NC(=O)Nc2ccccc2C(F)(F)F)cc1`, over 1000 µM.

Consider `O=C(O)COc1ccc(NC(=O)Cc2ccc(NC(=O)Nc3ccccc3C(F)(F)F)cc2)cc1CCC(=O)OCc1ccccc1`, for which the IC50 at Integrin alpha-4/beta-1 [1] is 33.1 µM. In addition, in the data set on CCRF-CEM [2], the Activity entry was “Non-toxic”. On to `O=C(O)COc1cc(NC(=O)Cc2ccc(NC(=O)Nc3ccccc3C(F)(F)F)cc2)ccc1CCC(=O)OCc1ccccc1`, for which the IC50 on Integrin alpha-4/beta-1 [1] was 64.6 µM. For the same compound, the outcome on Integrin alpha-4/beta-1 [3] was Active. Further, the Activity entry with CCRF-CEM [4] was “Non-toxic”. Take `Cc1cccc(C)c1NC(=O)Nc1ccc(CC(=O)Nc2ccc(CCC(=O)O)c(O)c2)cc1`: the IC50 on Integrin alpha-4/beta-1 [1] is 146 µM. Same read-out and setting: the result for `Cc1cccc(C)c1NC(=O)Nc1ccc(CC(=O)Nc2ccc(O)c(CCC(=O)O)c2)cc1` reads 138 µM; that for `Cc1cccc(C)c1NC(=O)Nc1ccc(CC(=O)Nc2ccc(OCC(=O)OC(C)(C)C)c(CCC(=O)OCc3ccccc3)c2)cc1`, 102 µM. Regarding `Cc1cccc(C)c1NC(=O)Nc1ccc(CC(=O)Nc2ccc(OCC(=O)O)c(CCC(=O)OCc3ccccc3)c2)cc1`, on Integrin alpha-4/beta-1 [1], the IC50 is 24.3 µM. For the same compound, the result on Integrin alpha-4/beta-1 [3] was Active. Besides, the Activity result in the data set with CCRF-CEM [2] and in the data set on CCRF-CEM [4] was “Non-toxic” in each case.

A word on the IC50: it is the concentration needed to halve the response being measured.
